Test results: patent US20020037931A1, “Substituted nitrated catechols, their use in the treatment of some central and peripheral nervous system disorders and pharmaceutical compositions containing them” (priority 2000, published 2002)

Assays:
[1] = biological target: T1, COMT (Homo sapiens, UniProt P21964); assay: COMT activity in intact SK-N-SH cell monolayers; assay type: cell-based; settings: SK-N-SH cells; test compound 100 nM; means±SEM, n=4-8
T1 construct: COMT activity was evaluated in cell monolayers by the ability to methylate adrenaline; host or cells: SK-N-SH cells
T1 sequence (P21964 1-271): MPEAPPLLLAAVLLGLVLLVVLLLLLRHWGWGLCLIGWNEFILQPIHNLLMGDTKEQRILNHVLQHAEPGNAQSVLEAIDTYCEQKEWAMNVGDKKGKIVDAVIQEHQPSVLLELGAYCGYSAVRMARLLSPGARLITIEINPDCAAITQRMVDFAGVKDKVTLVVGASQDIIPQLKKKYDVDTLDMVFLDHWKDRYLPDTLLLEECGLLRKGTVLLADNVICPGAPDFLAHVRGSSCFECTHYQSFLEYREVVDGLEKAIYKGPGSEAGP

[2] = test system: COMT; assay: COMT activity (methylation of adrenaline to metanephrine) in rat liver homogenates; assay type: biochemical; settings: rat liver homogenate; test compound 3 μM; means±SEM, n=4-8
[3] = test system: COMT; assay: Ex vivo brain COMT activity after administration by gastric tube; assay type: in vivo, rat; settings: for COMT activity (% of control), Brain: rat brain homogenate; for access to the brain / activity in the periphery (in words): conclusion from ex vivo COMT inhibition
[4] = test system: COMT; assay: COMT activity (methylation of adrenaline to metanephrine) in rat brain homogenates; assay type: biochemical; settings: rat brain homogenate; test compound 100 nM; means±SEM, n=4-8
[5] = test system: COMT; assay: Ex vivo liver COMT activity after administration by gastric tube; assay type: in vivo; settings: rat liver homogenate
[6] = 0.5 h after administration by gastric tube
[7] = 1 h after administration by gastric tube
[8] = 3 h after administration by gastric tube
[9] = 6 h after administration by gastric tube
[10] = 9 h after administration by gastric tube

SMILES	COMT activity, SK-N-SH (% of control) [1]	COMT activity, Liver (% of control) [2]	COMT activity (% of control), Brain [3, 6]	COMT activity (% of control), Brain [3, 7]	COMT activity (% of control), Brain [3, 8]	COMT activity (% of control), Brain [3, 9]	COMT activity (% of control), Brain [3, 10]	inhibition of brain COMT (in words) ([3]; after oral administration, rat)	access to the brain / activity in the periphery (in words) ([3]; rat)	COMT activity, Brain (% of control) [4]	COMT activity (% of control), Liver [5, 6]	COMT activity (% of control), Liver [5, 7]	COMT activity (% of control), Liver [5, 8]	COMT activity (% of control), Liver [5, 9]	COMT activity (% of control), Liver [5, 10]	inhibitory profile brain COMT versus liver COMT (in words) ([3]; after oral administration, rat, brain compared with liver)
O=C(Cc1ccccc1)c1ccc(O)c(O)c1[N+](=O)[O-] [Compound 24, 1-(3,4-Dihydroxy-2-nitro-phenyl)-2-phenyl ethanone]	24 ± 1 % of control	0.7 ± 0.0 % of control	18.7 ± 1.6 % of control	18.7 ± 0.6 % of control	37.0 ± 5.9 % of control	64.8 ± 3.7 % of control	98.4 % of control	potent inhibitors of brain COMT	limited access to the brain	7 ± 1 % of control	6.2 ± 0.8 % of control	8.4 ± 1.6 % of control	61.9 ± 10.8 % of control	91.6 ± 8.8 % of control	125.9 % of control	
O=C(c1ccccc1)c1ccc(O)c(O)c1[N+](=O)[O-] [Compound 5, (3,4-Dihydroxy-2-nitro-phenyl)-phenyl-methanone]	2 ± 0 % of control	0.3 ± 0.1 % of control	12.2 ± 0.3 % of control	25.5 ± 1.8 % of control	52.2 ± 2.3 % of control	92.5 ± 7.9 % of control	102.3 % of control		limited access to the brain	6 ± 1 % of control	2.1 ± 0.5 % of control	26.5 ± 1.3 % of control	52.1 ± 2.6 % of control	79.0 ± 14.8 % of control	108.9 % of control	much more potent as a peripheral COMT inhibitor than in brain
